Measurements published in US20100048641A1, “Use of Adenosine A1 and/or Dual A1/2ab Agonists for Production of Medicaments for Treating Diseases” (BAYER HEALTHCARE AG LAW AND PATENTS,PATENTS AND LICENSING, priority 2006, published 2010).
Where a name gives a salt, the structure may show the parent alone.

Experiments:
adenosine A1 receptor = biological target: T1, adenosine A1 receptor (Homo sapiens, UniProt P30542); test: Indirect determination of adenosine agonism by gene expression (luciferase, cAMP-dependent promoter), A1 cells; format: cell-based; conditions: CHO cells stably transfected with A1 receptor cDNA; 1 μM forskolin; concentration at which 50% of the luciferase answer is inhibited
T1 construct: expressed in transfected cells; host or cells: CHO (Chinese Hamster Ovary) cells, stably transfected
T1 sequence (P30542 1-326): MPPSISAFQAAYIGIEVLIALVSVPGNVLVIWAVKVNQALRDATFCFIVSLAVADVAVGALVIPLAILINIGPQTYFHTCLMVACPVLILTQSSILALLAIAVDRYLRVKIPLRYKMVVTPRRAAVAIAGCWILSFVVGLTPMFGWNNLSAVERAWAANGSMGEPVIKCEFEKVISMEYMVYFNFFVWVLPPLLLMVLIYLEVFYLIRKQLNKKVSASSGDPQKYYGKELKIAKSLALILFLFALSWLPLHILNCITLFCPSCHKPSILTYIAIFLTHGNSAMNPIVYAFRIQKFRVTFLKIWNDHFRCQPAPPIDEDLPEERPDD
Source text: (§1) Indirect Determination of the Adenosine Agonism by Way of Gene Expression
(§2) Cells of the CHO (Chinese Hamster Ovary) permanent cell line are transfected stably with the cDNA for the adenosine receptor subtypes A1, A2a and A2b. The adenosine A1 receptors are coupled to the adenylate cyclase by way of Gi proteins, while the adenosine A2a and A2b receptors are coupled by way of Gs proteins. In correspondence with this, the formation of cAMP in the cell is inhibited or stimulated, respectively. After that, expression of the luciferase is modulated by way of a cAMP-dependent promoter. The luciferase test is optimized, with the aim of high sensitivity and reproducibility, low variance and good suitability for implementation on a robot system, by varying several test parameters, such as cell density, duration of the growth phase and the test incubation, forskolin concentration and medium composition. The following test protocol is used for pharmacologically characterizing cells and for the robot-assisted substance screening:
(§3) The stock cultures are grown, at 37° C. and under 5% CO2, in DMEM/F12 medium containing 10% FCS (foetal calf serum) and in each case split 1:10 after 2-3 days. The test cultures are seeded in 384-well plates with 2000 cells per well and grown at 37° C. for approx. 48 hours. The medium is then replaced with a physiological sodium chloride solution (130 mM sodium chloride, 5 mM potassium chloride, 2 mM calcium chloride, 20 mM HEPES, 1 mM magnesium chloride hexahydrate, 5 mM sodium bicarbonate, pH 7.4). The substances to be tested, which are dissolved in DMSO, are pipetted into the test cultures (maximum final concentration of DMSO in the test mixture: 0.5%) in a dilution series of from 1.1×10^−11M to 3×10^−6M (final concentration). 10 minutes later, forskolin is added to the A1 cells and all the cultures are subsequently incubated at 37° C. for four hours. After that, 35 μl of a solution which is composed of 50% lysis reagent (30 mM disodium hydrogenphosphate, 10% glycerol, 3% TritonX100, 25 mM TrisHCl, 2 mM dithiotreitol (DTT), pH 7.8) and 50% luciferase substrate solution (2.5 mM ATP, 0.5 mM luciferin, 0.1 mM coenzyme A, 10 mM tricine, 1.35 mM magnesium sulfate, 15 mM DTT, pH 7.8) are added to the test cultures, which are shaken for approx. 1 minute and the luciferase activity is measured using a camera system. The EC50 values are determined, i.e., the concentrations at which 50% of the luciferase answer is inhibited in the case of the A1 cell, and, respectively, 50% of the maximum stimulation with the corresponding substance is achieved in the case of the A2b and A2a cells. […] Pharmacol., 357 (1998), 1-9).
(§4) Table 1 below lists the EC50 values of representative working examples of compounds of the formula (IA) for the receptor stimulation on adenosine A1, A2a and A2b receptor subtypes: […]

adenosine A2a receptor = biological target: T2, adenosine A2a receptor (Homo sapiens, UniProt P29274); test: Indirect determination of adenosine agonism by gene expression (luciferase, cAMP-dependent promoter), A2a cells; format: cell-based; conditions: CHO cells stably transfected with A2a receptor cDNA; 50% of maximum stimulation of luciferase
T2 construct: expressed in transfected cells; host or cells: CHO (Chinese Hamster Ovary) cells, stably transfected
T2 sequence (P29274 whole entry): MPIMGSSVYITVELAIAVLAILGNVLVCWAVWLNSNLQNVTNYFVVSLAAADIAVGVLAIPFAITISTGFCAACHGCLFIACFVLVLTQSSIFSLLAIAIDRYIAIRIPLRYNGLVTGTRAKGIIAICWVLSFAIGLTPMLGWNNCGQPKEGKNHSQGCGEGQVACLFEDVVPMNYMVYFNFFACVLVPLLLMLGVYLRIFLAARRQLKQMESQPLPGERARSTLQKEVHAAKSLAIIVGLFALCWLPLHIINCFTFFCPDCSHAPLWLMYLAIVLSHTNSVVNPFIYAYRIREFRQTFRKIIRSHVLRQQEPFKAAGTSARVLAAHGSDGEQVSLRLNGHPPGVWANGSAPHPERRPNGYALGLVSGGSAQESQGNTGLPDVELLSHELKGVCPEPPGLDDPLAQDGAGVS
Source text: as §1, §2, §3, §4

adenosine A2b receptor = biological target: T3, adenosine A2b receptor (Homo sapiens, UniProt P29275); test: Indirect determination of adenosine agonism by gene expression (luciferase, cAMP-dependent promoter), A2b cells; format: cell-based; conditions: CHO cells stably transfected with A2b receptor cDNA; 50% of maximum stimulation of luciferase
T3 construct: expressed in transfected cells; host or cells: CHO (Chinese Hamster Ovary) cells, stably transfected
T3 sequence (P29275 1-332): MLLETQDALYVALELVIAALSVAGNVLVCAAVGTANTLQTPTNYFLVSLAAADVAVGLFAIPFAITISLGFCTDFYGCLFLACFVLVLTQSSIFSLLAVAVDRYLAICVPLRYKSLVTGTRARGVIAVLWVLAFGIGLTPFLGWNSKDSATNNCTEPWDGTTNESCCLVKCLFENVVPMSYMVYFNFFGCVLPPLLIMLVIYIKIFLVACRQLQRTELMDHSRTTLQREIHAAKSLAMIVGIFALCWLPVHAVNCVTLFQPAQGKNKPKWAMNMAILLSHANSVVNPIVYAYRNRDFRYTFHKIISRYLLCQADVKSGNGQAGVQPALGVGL
Source text: as §1, §2, §3, §4

| SMILES | EC50 (adenosine A1 receptor) [nM] | EC50 (adenosine A2a receptor) [nM] | EC50 (adenosine A2b receptor) [nM] | melting point [°C] |
| --- | --- | --- | --- | --- |
| N#Cc1c(N)nc(SCc2csc(Nc3ccc(F)cc3)n2)c(C#N)c1-c1ccc(OCCO)cc1 [Example 8, 2-Amino-6-[({2-[(4-fluorophenyl)amino]-1,3-thiazol-4-yl}methyl)thio]-4-[4-(2-hydroxyethoxy)-phenyl]pyridine-3,5-dicarbonitrile] | 1 | 300 | 1 | – |
| N#Cc1c(N)nc(SCc2csc(Nc3ccc(F)cc3)n2)c(C#N)c1-c1ccc(OCCN)cc1 [Example 70, 2-Amino-4-[4-(2-aminoethoxy)phenyl]-6-[({2-[(4-fluorophenyl)amino]-1,3-thiazol-4-yl}methyl)-thio]pyridine-3,5-dicarbonitrile hydrochloride] | 2.3 | > 3000 | 28 | – |
| N#Cc1c(N)nc(SCc2csc(Nc3ccc(F)c(Cl)c3)n2)c(C#N)c1-c1ccc(OC[C@@H](O)CO)cc1 [Example 48] | 0.4 | 140 | 0.1 | – |
| N#Cc1c(N)nc(SCc2csc(Nc3ccc(F)cc3F)n2)c(C#N)c1-c1ccc(OCCO)cc1 [Example 10, 2-Amino-6-[({2-[(2,4-difluorophenyl)amino]-1,3-thiazol-4-yl}methyl)thio]-4-[4-(2-hydroxyethoxy)phenyl]pyridine-3,5-dicarbonitrile] | 2 | > 200 | 1 | – |
| N#Cc1ccc(Nc2nc(CSc3nc(N)c(C#N)c(-c4ccc(OCCO)cc4)c3C#N)cs2)cc1 [Example 21] | 0.7 | 103 | 0.5 | – |
| N#Cc1c(N)nc(SCc2csc(Nc3cccc(Cl)c3)n2)c(C#N)c1-c1ccc(OC[C@@H](O)CO)cc1 [Example 35] | 0.4 | 142 | 0.3 | – |
| COCCOc1ccc(-c2c(C#N)c(N)nc(SCc3csc(Nc4ccc(C)cc4)n3)c2C#N)cc1 [Example 26] | 23 | > 3000 | 74 | – |
| COc1cc(Nc2nc(CSc3nc(N)c(C#N)c(-c4ccc(OC[C@@H](O)CO)cc4)c3C#N)cs2)ccc1F [Example 39] | 0.3 | 1200 | 1.4 | – |

More lines, now with the values ahead:

| EC50 (adenosine A1 receptor) [nM] | EC50 (adenosine A2a receptor) [nM] | EC50 (adenosine A2b receptor) [nM] | melting point [°C] | SMILES |
| --- | --- | --- | --- | --- |
| 0.2 | 236 | 0.1 | – | N#Cc1c(N)nc(SCc2csc(Nc3ccc(C(=O)O)cc3)n2)c(C#N)c1-c1ccc(OCCO)cc1 [Example 13, 4-({4-[({6-Amino-3,5-dicyano-4-[4-(2-hydroxyethoxy)phenyl]pyridin-2-yl}thio)methyl]-1,3-thiazol-2-yl}amino)benzoic acid] |
| 9.9 | 747 | 6.1 | – | Cc1cccc(Nc2nc(CSc3nc(N)c(C#N)c(-c4ccc(OCC(O)CO)cc4)c3C#N)cs2)c1 (stereo not shown) [Example 2] |
| – | – | – | 192 to 194 | N#Cc1c(N)nc(SCc2csc(Nc3cccc(Cl)c3)n2)c(C#N)c1-c1ccc(OCC(O)CO)cc1 (stereo not shown) [Example 1, 2-Amino-6-[({2-[(3-chlorophenyl)amino]-1,3-thiazol-4-yl}methyl)thio]-4-[4-(2,3-dihydroxypropoxy)phenyl]pyridine-3,5-dicarbonitrile] |
| 0.6 | 140 | 0.3 | – | N#Cc1c(N)nc(SCc2csc(Nc3cccc(F)c3)n2)c(C#N)c1-c1ccc(OC[C@@H](O)CO)cc1 [Example 44] |
